This note sets out measurements from US10081647B2, “Phosphate substituted quinolizine derivatives useful as HIV integrase inhibitors” (Merck Sharp & Dohme Corp., priority 2015, dated 2018).

Read-outs that look alike come from different tables or passages of the source.

In the test the test system is HIV-1 (NL4-3 strain). The test is described as follows: Assay for inhibition of HIV replication (MT4-gag-GFP reporter cell line, kinetic assay). It counts as cell-based. The conditions noted are these: IP from 4-parameter dose response curve. As for the experimental part: This assay is useful for assessing the ability of a compound of the present inventiongin to inhibit HIV replication. The assay is a kinetic assay that employs a reporter cell line (MT4-gag-GFP) to quantify the number of new cells infected in each round of replication.
MT4-GFP cells (250,000 cells/ml) are bulk-infected with HIV-1 (NL4-3 strain) at low multiplicity of infection (MOI) in RPMI+10% FBS for 24 hours. Cells are then washed once in RPMI+10% FBS and resuspended in RPMI+0% or 10% or 100% normal human serum (NHS). Test compounds are serial-diluted in DMSO using an ECHO liquid handler. The infected MT4-GFP cells are added to a 384-well poly-D-lysine coated black plate with clear bottom in which the diluted test compounds are placed. The cells are seeded at 8,000 cells per well and the final DMSO concentration is adjusted to 0.4%. The infected cells (Green GFP cells) are then quantified at both 24 and 48 hours post incubation using Acumen eX3. Viral reproductive ratio (R0) is determined using the number of infected cells at 48 hours divided by the number of infected cells at 24 hours. Percent viral growth inhibition is calculated by [1−(R−Rtripledrug)/(RDMSO−Rtripledrug)]*100. Compound potency IP or IC50 can be determined using a 4-parameter dose response curve analysis.

The mark [1] stands for this setting: infected MT4-GFP cells in 100% normal human serum, read-out: WILD TYPE CELL ASSAY Viking IP (100% NHS).
[2] abbreviates: infected MT4-GFP cells in RPMI + 0% normal human serum, read-out: WILD TYPE CELL ASSAY Viking IP (0% NHS).

In the case of `CC1(C)C(=O)c2c(O)c(=O)c(C(=O)NCc3ccc(F)cc3F)cn2CC1OCCP(=O)(O)O` (centres unmarked) [Compound 68], the IC50 was above 8000 nM under setting [1] and above 1000 nM under setting [2].
For the compound `COCCC1(C)C(=O)c2c(O)c(=O)c(C(=O)NCc3ccc(F)cc3F)cn2CC1OCCP(=O)(OCOC(=O)OC(C)C)OCOC(=O)OC(C)C` (centres unmarked) [Compound 87], the IC50 is 21 nM under setting [1] and 0.8 nM under setting [2].
The corresponding values for `COC1Cn2cc(C(=O)NCc3ccc(F)cc3F)c(=O)c(O)c2C(=O)C1(C)COCCP(=O)(OCOC(=O)OC(C)C)OCOC(=O)OC(C)C` (centres unmarked) [Compound 42] are 407 nM and 1.2 nM.
As for `CCOP(=O)(CCCOC1Cn2cc(C(=O)NCc3ccc(F)cc3F)c(=O)c(O)c2C(=O)C1(C)C)OCC` (centres unmarked) [Compound 71], the IC50 came out at 173 nM under setting [1] and 9.5 nM under setting [2].
As to `COC1Cn2cc(C(=O)NCc3ccc(F)cc3F)c(=O)c(O)c2C(=O)C1(C)COCCP(=O)(O)O` (centres unmarked) [Compound 36], the IC50 stood at 3600 nM under setting [1] and 629 nM under setting [2].
With `CCOP(=O)(CCOC1Cn2cc(C(=O)NCc3ccc(F)cc3F)c(=O)c(O)c2C(=O)C1(C)CCOC)OCC` (centres unmarked) [Compound 80], the IC50 by setting is: under setting [1], 2750 nM; under setting [2], 378 nM.
Take `COC1Cn2cc(C(=O)NCc3ccc(F)cc3F)c(=O)c(O)c2C(=O)C1(C)CCOCCP(=O)(O)O` (centres unmarked) [Compound 60]: the IC50 runs as follows: under setting [1], 5180 nM; under setting [2], 765 nM.
The corresponding values for `CCOP(=O)(CCOCCC1(C)C(=O)c2c(O)c(=O)c(C(=O)NCc3ccc(F)cc3F)cn2CC1OC)OCC` (centres unmarked) [Compound 56] are 86 nM and 4.6 nM.
Take `CCOP(=O)(CCCOC1Cn2cc(C(=O)NCc3ccc(F)cc3F)c(=O)c(O)c2C(=O)C1(C)C)OCC` (centres unmarked) [Compound 72]: the IC50 reads like this: under setting [1], 923 nM; under setting [2], 26 nM.
For `CCOP(=O)(CCOC1Cn2cc(C(=O)NCc3ccc(F)cc3F)c(=O)c(O)c2C(=O)C1(C)CCOC)OCC` (centres unmarked) [Compound 79] the same measures were 177 nM and 15 nM.
